# What was measured:
# [1] = biological target: T1, HDAC3 (in complex with the deacetylase activation domain of the human NCOR2 (amino acids 395-498)) (Homo sapiens, UniProt O15379); assay: In vitro HDAC activity assay (HDAC-Glo I/II), HDAC3; assay type: biochemical; conditions: for IC50: HDAC-Glo I/II, average of three independent assays ± standard deviation
# T1 construct: purchased BPS Bioscience 50003
# Method: (§1) Purified HDAC1, HDAC2, and HDAC3 (in complex with the deacetylase activation domain of the human NCOR2 (amino acids 395-498)) were obtained from Enzo Life Sciences (HDAC1, catalog # BML-SE456-0050) and BPS Bioscience (HDAC2, catalog #50002 and HDAC3, catalog #50003), respectively. The enzyme activities were tested using the HDAC-Glo I/II reagents (Promega) according to a protocol provided by the manufacturer.
# HDAC1 = HDAC1 (Homo sapiens, UniProt Q13547); assay: In vitro HDAC activity assay (HDAC-Glo I/II), HDAC1; assay type: biochemical; parameters: purchased Enzo Life Sciences BML-SE456-0050; conditions: average of three independent assays ± standard deviation
# HDAC1, sequence (Q13547 whole entry): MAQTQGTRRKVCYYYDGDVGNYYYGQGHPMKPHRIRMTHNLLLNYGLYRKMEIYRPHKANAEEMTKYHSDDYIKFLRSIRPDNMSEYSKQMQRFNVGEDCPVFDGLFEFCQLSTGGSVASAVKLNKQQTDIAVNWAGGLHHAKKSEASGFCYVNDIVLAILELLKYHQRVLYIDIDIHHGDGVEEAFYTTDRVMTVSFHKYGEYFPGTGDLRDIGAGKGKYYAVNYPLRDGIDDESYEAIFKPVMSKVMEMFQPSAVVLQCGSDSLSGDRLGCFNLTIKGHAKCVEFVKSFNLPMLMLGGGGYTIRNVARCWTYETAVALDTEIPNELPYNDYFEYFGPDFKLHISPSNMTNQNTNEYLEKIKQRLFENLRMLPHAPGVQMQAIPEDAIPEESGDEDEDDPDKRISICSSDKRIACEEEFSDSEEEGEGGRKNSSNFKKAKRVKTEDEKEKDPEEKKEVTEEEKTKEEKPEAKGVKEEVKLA
# Method: as §1
# HDAC2 [2] = biological target: T2, HDAC2 (Homo sapiens, UniProt Q92769); assay: In vitro HDAC activity assay (HDAC-Glo I/II), HDAC2; assay type: biochemical; parameters: purchased BPS Bioscience 50002; conditions: average of three independent assays ± standard deviation
# T2 sequence (Q92769 whole entry): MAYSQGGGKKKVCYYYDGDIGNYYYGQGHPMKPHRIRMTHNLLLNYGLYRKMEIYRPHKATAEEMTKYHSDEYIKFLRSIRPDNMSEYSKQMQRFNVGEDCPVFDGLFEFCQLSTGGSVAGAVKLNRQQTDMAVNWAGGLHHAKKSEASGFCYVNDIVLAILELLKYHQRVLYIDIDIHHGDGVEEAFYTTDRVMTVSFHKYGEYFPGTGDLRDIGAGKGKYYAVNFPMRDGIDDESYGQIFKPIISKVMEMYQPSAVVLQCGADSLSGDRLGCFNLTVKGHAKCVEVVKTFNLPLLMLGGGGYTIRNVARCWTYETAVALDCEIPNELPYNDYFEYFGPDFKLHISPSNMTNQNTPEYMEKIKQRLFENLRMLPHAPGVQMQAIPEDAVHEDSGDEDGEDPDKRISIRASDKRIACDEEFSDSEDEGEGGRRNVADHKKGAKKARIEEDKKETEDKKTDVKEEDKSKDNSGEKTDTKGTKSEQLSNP
# Method: as §1
# MDA-MB-468 cells = assay: Cell viability assay (CellTiter-Glo); assay type: cell-based
# Method: MDA-MB-468, MDA-MB-231, and T47D cells were treated with the indicated compounds at different concentrations for 72 h. Cell viability was assessed with CellTiter-Glo® reagents.
# (§2) Cell lines were obtained from ATCC and subsequently authenticated. Cells were cultured with DMEM supplemented with 10% bovine calf serum, penicillin to 10 units/mL, and streptomycin to 10 μg/mL. For viability assays, 5,000 cells/well were seeded in 96-well plates. Compounds at a specified concentration or DMSO were added 24 h later. Viability assays were performed 72 h after compound addition using the CellTiter-Glo reagents (Promega). For colony formation assay, cells (˜1,000 cells/well) were seeded in a 24-well plate in quadruplicates. At 24 h after seeding, DMSO, XZ9002, or XZ9002-NC were added at a specified concentration. Medium was replaced with freshly prepared medium containing DMSO, XZ9002 or XZ9002-NC every five days until visible colonies appeared, typically in 15 to 20 days after initial cell seeding. Cells were fixed with 4% paraformaldehyde for 15 min and stained with 2% methylene blue in 20% ethanol for 30 min to 1 h. The cells were washed twice with distilled water and dried in air. For western blotting, cell cultures were exposed to compounds as indicated in relevant figures. Medium was removed from culture plate, and 1 x passive lysis buffer was then added, the plates were frozen at −80° C. overnight and thawed at room temperature. The total cell lysates were mixed with a one fifth volume of 6x SDS sample buffer, heated at 95° C. for 5 min and cooled on ice. The lysates were cleared by centrifugation and then subjected to SDS-PAGE and western blotting essentially as described. […]
# HDAC2 [3] = biological target: T2, HDAC2; assay: HDAC2 protein level in breast cancer cell lines, Western blot; assay type: cell-based; conditions: MCF7 cells, 4 h (FIG. 8A)
# Method: FIG. 3A: Western blot showing HDAC protein levels in MDA-MB-468 cells treated with the indicated concentration of XZ9002 for 14 h. FIG. 3B: pretreatment with 1 μM MG132, or 10 μM VHL032 for 1 h blocked the degradation of HDAC3 by XZ9002 {125 nM}. […] NC: XZ9002-NC. FIG. 3C: time-dependent experiment in MDA-MB-468 cells after treatment with 125 nM XZ9002 at the indicated time points. FIG. 3D: MDA-MB-468 cells were incubated with 125 nM of XZ9002 for 14 h followed by drug washout, and incubation of the cells in drug-free medium for an additional time. Data are presented as representative figures of two independent experiments.
# The culture of the triple-negative breast cancer cell line MDA-MB-468 and the ER+ breast cancer cell line T47D was exposed to vehicle control (DMSO) and the indicated compounds at specified concentrations for 14 h. Cells were lysed for WB with antibodies against the indicated proteins. Antibodies against acetylated histones at specific sites (H3K27 and H4K5) and acetyl-lysine were used to assess levels of histone acetylation. Levels of HDAC3 were normalized against that of tubulin and % of HDAC3 protein levels in cells treated with the indicated compounds relative to that in DMSO control is shown.
# FIGS. 8A-8B show the cellular activity of XZ9002. […] Cells were lysed for WB. The relative HDAC3 protein level in each sample is shown. […]
# HDAC3 = HDAC3 (Homo sapiens, UniProt O15379); assay: HDAC3 degradation in breast cancer cell lines, Western blot; assay type: cell-based; parameters: endogenous in cells; host or cells: MDA-MB-468, T47D, MCF7; conditions: MCF7 cells, 4 h (FIG. 8A)
# HDAC3, sequence (O15379 whole entry): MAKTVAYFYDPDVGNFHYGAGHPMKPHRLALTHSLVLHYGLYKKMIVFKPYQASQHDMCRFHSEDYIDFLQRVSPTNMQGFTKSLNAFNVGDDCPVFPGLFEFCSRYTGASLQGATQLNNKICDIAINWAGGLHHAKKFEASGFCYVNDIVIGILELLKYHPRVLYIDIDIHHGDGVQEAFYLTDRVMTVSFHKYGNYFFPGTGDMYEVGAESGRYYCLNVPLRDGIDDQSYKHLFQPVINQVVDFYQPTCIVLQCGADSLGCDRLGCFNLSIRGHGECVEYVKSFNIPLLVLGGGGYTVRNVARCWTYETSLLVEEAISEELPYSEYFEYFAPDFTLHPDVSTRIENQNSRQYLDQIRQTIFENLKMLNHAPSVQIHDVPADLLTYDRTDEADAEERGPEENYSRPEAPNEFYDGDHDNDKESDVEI
# HDAC3, sequence (Q9Y618 395-498 partner limits assumed): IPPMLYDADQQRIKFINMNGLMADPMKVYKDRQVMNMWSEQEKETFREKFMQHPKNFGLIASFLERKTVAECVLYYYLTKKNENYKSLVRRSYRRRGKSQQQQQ
# From the text: Data are presented as representative figures of two independent experiments.
# Cells were lysed for WB with antibodies against the indicated proteins. Antibodies against acetylated histones at specific sites (H3K27 and H4K5) and acetyl-lysine were used to assess levels of histone acetylation.
# Cells were lysed for WB. […] The indicated BC cell lines were exposed to DMSO, XZ9002, or XZ9002-NC at the indicated concentrations. Colonies were fixed and stained.
# Cell lines were obtained from ATCC and subsequently authenticated. Cells were cultured with DMEM supplemented with 10% bovine calf serum, penicillin to 10 units/mL, and streptomycin to 10 μg/mL. For viability assays, 5,000 cells/well were seeded in 96-well plates. […] For colony formation assay, cells (˜1,000 cells/well) were seeded in a 24-well plate in quadruplicates. […] Medium was replaced with freshly prepared medium containing DMSO, XZ9002 or XZ9002-NC every five days until visible colonies appeared, typically in 15 to 20 days after initial cell seeding. Cells were fixed with 4% paraformaldehyde for 15 min and stained with 2% methylene blue in 20% ethanol for 30 min to 1 h. The cells were washed twice with distilled water and dried in air. For western blotting, cell cultures were exposed to compounds as indicated in relevant figures. Medium was removed from culture plate, and 1 x passive lysis buffer was then added, the plates were frozen at −80° C. overnight and thawed at room temperature. The total cell lysates were mixed with a one fifth volume of 6x SDS sample buffer, heated at 95° C. for 5 min and cooled on ice. The lysates were cleared by centrifugation and then subjected to SDS-PAGE and western blotting essentially as described.
# [4] = system: non-small cell lung cancer (NSCLC) cell line H1299; assay: Clonogenic growth assay, H1299; assay type: cell-based; conditions: H1299, treatment for 10 days
# Method: H1299 cells were exposed to DMSO, or 28c at the indicated concentrations. Colonies were fixed and stained after treatment for 10 days.
# as §2, with “temperature.” for “temperature. The total cell lysates were mixed with a one fifth volume of 6x SDS sample buffer, heated at 95° C. for 5 min and cooled on ice. The lysates were cleared by centrifugation and then subjected to SDS-PAGE and western blotting essentially as described.”
# T1 sequence (O15379 whole entry, the tested form may be a part): as the sequence (O15379 whole entry) above
# T1 sequence (Q9Y618 395-498 partner limits assumed): as the sequence (Q9Y618 395-498 partner limits assumed) above
IC50 [1],IC50 (HDAC1),IC50 (HDAC2 [2]),preference for HDAC3 ([1]; against the other tested HDAC isoforms),HDAC2 degradation (in words) (HDAC2 [3]),HDAC3 degradation (in words) (HDAC3),SMILES,"antiproliferative activity (in words) (MDA-MB-468 cells; MDA-MB-468, 72 h, similar trends in MDA-MB-231 and T47D cells)","IC50 (MDA-MB-468 cells; Homo sapiens, MDA-MB-468 cell line, 72 h, CellTiter-Glo, read-out: IC50 cytotoxicity (cell viability))",inhibition of clonogenic growth [4]
320 ± 30 nM,360 ± 60 nM,1650 ± 70 nM,,,,"CCCNNC(=O)c1ccc(-c2ccc(NC(=O)CCCCC(=O)N[C@H](C(=O)N3C[C@H](O)C[C@H]3C(=O)N[C@@H](C)c3ccc(-c4scnc4C)cc3)C(C)(C)C)cc2)cc1 [Compound 8b, N^1—((S)-1-((2S,4R)-4-Hydroxy-2-(((S)-1-(4-(4-methylthiazol-5-yl)phenyl)ethyl)carbamoyl)pyrrolidin-1-yl)-3,3-dimethyl-1-oxobutan-2-yl)-N^6-(4′-(2-propylhydrazine-1-carbonyl)-[1,1′-biphenyl]-4-yl)adipamide]",decreased antiproliferative activity,,
13 ± 1 nM,72 ± 10 nM,82 ± 25 nM,≥ 13 fold,does not significantly degrade,does not significantly degrade,"CCCNNC(=O)c1ccc(-c2ccc(NC(C)=O)cc2)cc1 [Compound 15, N-(4′-(2-propylhydrazine-1-carbonyl)[1,1′-biphenyl]-4-yl)acetamide]",,990 nM,
,,,,,,"CCCNNC(=O)c1ccc(N2CCN(CCCCCCCC(=O)N[C@H](C(=O)N3C[C@H](O)C[C@H]3C(=O)N[C@@H](C)c3ccc(-c4scnc4C)cc3)C(C)(C)C)CC2)cc1 [Compound 28c, (2S,4R)-1-((S)-3,3-dimethyl-2-(8-(4-(4-(2-propylhydrazine-1-carbonyl)phenyl)piperazinyl)octanamido)butanoyl)-4-hydroxy-N—((S)-1-(4-(4-methylthiazol-5-yl)phenyl)ethyl)pyrrolidine carboxamide]",,,effective to inhibit clonogenic growth

# — patent US20230181746A1, “BENZOYLHYDRAZIDE-DERIVED HDAC DEGRADERS AS THERAPEUTICS FOR TREATING CANCER AND OTHER HUMAN DISEASES” (University of Florida Research Foundation, Inc., priority 2020, published 2023)
